Key:
IRF-3 = test: Native-PAGE and Western blotting for IRF-3 dimers; format: cell-based, mouse; settings: macrophages pretreated with SA
Protocol: Rabbit anti-mouse IκBα phospho-specific Ab (pAb) was purchased from Santa Cruz Biotechnology, Inc. (Santa Cruz, Calif.). Rabbit anti-mouse MAPK pAb and rabbit anti-human phospho-IRF-3 pAb antibodies were purchased from Cell Signaling (Danvers, Mass.). Rabbit anti-mouse IRF-3 pAb was purchased from Zymed (South San Francisco, Calif.). Native-PAGE for the detection of IRF-3 dimers was carried out as described in Iwamura, T. et al. (2001) “Induction Of IRF-3/-7 Kinase And NF-kappaB in Response To Double-Stranded RNA And Virus Infection: Common And Unique Pathways,” Genes and Cells 6:375-388. Briefly, thioglycollate-elicited peritoneal macrophages were lysed following stimulation with either LPS or DMXAA as indicated. […] Membranes were probed with a 1:250 dilution of rabbit anti-mouse IRF-3 for 1 h at room temperature. Goat anti-rabbit IgG-HRP (Cell Signaling Technologies, Danvers, Mass.) at a 1:2000 dilution was used as the secondary Ab. Blots were developed with ECL Plus (Amersham Biosciences, Piscataway, N.J.).

peritoneal macrophages = test: Quantitative real-time PCR of cytokine mRNA in murine peritoneal macrophages
MEFs = test: RANTES protein in MEF supernatants; format: cell-based, mouse; settings: MAVS+/+ and MAVS−/− MEFs, 24 h
Protocol: IFN-β protein in cell culture supernatants was measured using a custom ELISA originally described in Weinstein, S. L. et al. (2000) “Phosphatidylinositol 3-Kinase And mTOR Mediate Lipopolysaccharide-Stimulated Nitric Oxide Production In Macrophages Via Interferon-Beta,” J. Leukocyte Biol. 67:405-414, with few modifications. […] Plates were blocked with 10% FCS in 1×PBS for 2 h at room temperature. Samples and a murine IFN-β standard (NIH, Bethesda, Md.) were added to wells and incubated overnight at 4° C. […] Wells were washed 3× followed by incubation with a 1:2000 dilution of goat anti-rabbit HRP (Cell Signaling Technologies, Beverly, Mass.) in 10% FCS-PBS for 1 h at room temperature. Plates were washed 3× and developed with TMB substrate (KPL, Gaithersburg, Md.). The reaction was stopped by addition of 1N H2SO4, and plates were read at 450 nm. RANTES and TNF-α were quantified using Luminex bead-based colorimetric assays. […] For stimulation of cells, poly(I:C) was mixed with Fugene 6 transfection reagent (Roche) at a ratio of 1:1 (volume:weight) in OptiMEM medium and incubated for 15 min prior to stimulation. Culture supernatants of cells (2×10^4) seeded on 96-well plates were collected after 24 h stimulation and analyzed for RANTES levels with ELISA. ELISA was performed according to the manufacturer's instructions (R&D Systems).

[1] = peritoneal macrophages pretreated with SA

Row | Compound | IRF-3 dimer formation and phosphorylation of serine 396 in response to DMXAA (IRF-3) | effect on DMXAA-induced IFN-β expression (peritoneal macrophages; [1]) | effect on LPS-induced IFN-β mRNA expression (peritoneal macrophages; [1]) | RANTES response in MAVS-deficient MEFs (MEFs) | TNF-α mRNA in the absence of TLR4 (peritoneal macrophages; TLR4−/− peritoneal macrophages, 2 h)
1 | O=C(O)c1ccccc1O [SA, salicylic acid, reference compound] | inhibits | dramatically reduces | essentially unaffected | – | –
2 | poly I:C [reference compound] | – | – | – | completely abrogates | induces TNF-α to wild-type levels
